Experiments:
[1] = B.E.T.
[2] = Bulk density (tapped cylinder); settings: nearly dry material before granulation
[3] = helium displacement

Structure (SMILES)	surface area as fraction of that of commercial calcium citrate tetrahydrate [1]	density (bulk) [2]	true density [3]	surface area [1]
O=C([O-])CC(O)(CC(=O)[O-])C(=O)[O-].O=C([O-])CC(O)(CC(=O)[O-])C(=O)[O-].[Ca+2].[Ca+2].[Ca+2] [calcium citrate]	1/10	1.1-1.2 g/cc		
O.O.O.O.O=C([O-])CC(O)(CC(=O)[O-])C(=O)[O-].O=C([O-])CC(O)(CC(=O)[O-])C(=O)[O-].[Ca+2].[Ca+2].[Ca+2] [Pfizer calcium citrate tetrahydrate, calcium citrate tetrahydrate]			about 2.0 g/cc	about 10 m^2/g

Reference: patent US6818228B1 (priority 1996, dated 2004)
